Assay results: patent US10100064B2, “Purine inhibitors of human phosphatidylinositol 3-kinase delta” (Merck Sharp & Dohme Corp., priority 2014, dated 2018)
pIC50: −log10 of the molar value.

Columns and labels:
PI3Kdelta = target: T1, PI3Kdelta (Homo sapiens, UniProt O00329); assay: HTRF PI3K biochemical assay, delta isoform; conditions: 0.3 nM enzyme, 100 uM ATP, 5 uM PIP2, form screened (Neutral or TFA salt) given per compound
T1 construct: purchased Upstate; Millipore 14-604
Text: (§1) HTRF PI3K Biochemical Assay to Measure Intrinsic Potency of Compound Inhibitors
(§2) The PI3-Kinase biochemical assays were developed to measure the intrinsic potency and compound dependent inhibition of the alpha, beta, delta, and gamma PI3K isoform enzymes. This assay was developed and further optimized from a kit produced by Upstate (Millipore catalog #33-047) and has been configured for HTS and SAR screening. Briefly, this procedure exploits the exquisite specificity and high affinity binding of […] phosphatidyl(3,4,5)triphosphate (PIP3) to the GRP1 pleckstrin homology (PH) domain to generate the signal. In the absence of PIP3, an HTRF (Homogeneous Time-Resolved Fluorescence energy transfer) complex is formed consisting of europium (Eu)-labeled anti-GST, GSTtagged GRP1-PH domain, biotin-PIP3 and streptavidin conjugated APC. The native PIP3 produced by PI3-Kinase activity disrupts in a competitive manner the biotin-PIP3 from the PH domain, resulting in the loss of energy transfer (HTRF complex) and a decrease in the signal. The format of this assay is the same for all 4 isoforms of PI3K; the differences lie in the concentration of enzyme used to achieve robust assay window. The alpha, beta, and delta assays are run at 0.5, 1, and 0.3 nM enzymes and the gamma assay is run at 5 nM enzyme. The ATP concentration is 100 uM in the alpha, beta, and delta assays and 50 uM ATP in the gamma assay. All reactions are run at 5 uM PIP2.
(§3) Compounds are serially diluted (3-fold in 100% DMSO) across a 384-well polypropylene source plated from column 3 to column 12 and column 13 to column 22, to yield 10 concentration dose response for each test compound. Columns 1, 2, 23 and 24 contain either only DMSO or pharmacological known control inhibitor. Once titrations are made, 2.5 nL of the compounds on 384 well plates are reformatted and transferred by acoustic dispense in quadruplicates to a 1536 assay plate (Greiner) to assay across all four PI3K isoform enzymes.
(§4) The PI3-Kinase biochemical assay was optimized using the HTRF kit provided by Upstate (Millipore). The assay kit contains six reagents: 1) 4× Reaction Buffer; 2) native PIP2 (substrate); 3) Stop (EDTA); 4) Detection Mix A (Streptavidin-APC); 5) Detection Mix B (Eu-labeled Anti-GST plus GST-tagged PH-domain); 6) Detection Mix C. In addition, the following items were obtained or purchased; PI3Kinase (alpha 14-602, beta 14-603, gamma 14-558 and delta 14-604 from Upstate; Millipore), dithiothreitol (Sigma, D-5545), Adenosine-5′ triphosphate (InVitrogen, Cat#AS001A), native PIP3 (PI(3,4,5)P3, diC8, H^+, CELLSIGNALS, INC. Cat #907) DMSO (Sigma, 472301).
(§5) PI3Kinase Reaction Buffer is prepared by dilution the stock 1:4 with de-ionized water. DTT, PIP2 and Biotin-PIP3 were added to 1536 assay plate at a final concentration of 5 mM, […] 25 nM on the day of use. Enzyme addition and compound pre-incubation are initiated by the addition of 1.25 ul of PI3K (at twice its final concentration) in the 1× reaction buffer to all wells using a BioRaptor. Plates are incubated at room temperature for 15 minutes. Reactions are initiated by addition of 1.25 ul of 2× substrate solution (PIP2 and ATP in 1× reaction buffer) using BioRaptor. Plates are incubated in humidified chamber at room temperature for one hour. Reactions are quenched by addition of 0.625 uL of stop solution to all wells using the BioRaptor. The quenched reactions are then processed to detect product formation by adding 0.625 uL of Detection Solution to all wells using the BioRaptor (Detection mix C, Detection Mix A, and Detection Mix B combined together in an 18:1:1 ratio prepared 2 hours prior to use). Following a one hour incubation in the dark, the HTRF signal is measured on the Envision plate reader set for 330 nm excitation and dual emission detection at […]. […]

PI3Kalpha = target: T2, PI3Kalpha (Homo sapiens, UniProt P42336); assay: HTRF PI3K biochemical assay, alpha isoform (selectivity versus delta); conditions: relative ratio PI3K-alpha IC50 value / PI3K-delta IC50 value
T2 construct: purchased Upstate; Millipore 14-602
T2 sequence (P42336 whole entry, canonical isoform): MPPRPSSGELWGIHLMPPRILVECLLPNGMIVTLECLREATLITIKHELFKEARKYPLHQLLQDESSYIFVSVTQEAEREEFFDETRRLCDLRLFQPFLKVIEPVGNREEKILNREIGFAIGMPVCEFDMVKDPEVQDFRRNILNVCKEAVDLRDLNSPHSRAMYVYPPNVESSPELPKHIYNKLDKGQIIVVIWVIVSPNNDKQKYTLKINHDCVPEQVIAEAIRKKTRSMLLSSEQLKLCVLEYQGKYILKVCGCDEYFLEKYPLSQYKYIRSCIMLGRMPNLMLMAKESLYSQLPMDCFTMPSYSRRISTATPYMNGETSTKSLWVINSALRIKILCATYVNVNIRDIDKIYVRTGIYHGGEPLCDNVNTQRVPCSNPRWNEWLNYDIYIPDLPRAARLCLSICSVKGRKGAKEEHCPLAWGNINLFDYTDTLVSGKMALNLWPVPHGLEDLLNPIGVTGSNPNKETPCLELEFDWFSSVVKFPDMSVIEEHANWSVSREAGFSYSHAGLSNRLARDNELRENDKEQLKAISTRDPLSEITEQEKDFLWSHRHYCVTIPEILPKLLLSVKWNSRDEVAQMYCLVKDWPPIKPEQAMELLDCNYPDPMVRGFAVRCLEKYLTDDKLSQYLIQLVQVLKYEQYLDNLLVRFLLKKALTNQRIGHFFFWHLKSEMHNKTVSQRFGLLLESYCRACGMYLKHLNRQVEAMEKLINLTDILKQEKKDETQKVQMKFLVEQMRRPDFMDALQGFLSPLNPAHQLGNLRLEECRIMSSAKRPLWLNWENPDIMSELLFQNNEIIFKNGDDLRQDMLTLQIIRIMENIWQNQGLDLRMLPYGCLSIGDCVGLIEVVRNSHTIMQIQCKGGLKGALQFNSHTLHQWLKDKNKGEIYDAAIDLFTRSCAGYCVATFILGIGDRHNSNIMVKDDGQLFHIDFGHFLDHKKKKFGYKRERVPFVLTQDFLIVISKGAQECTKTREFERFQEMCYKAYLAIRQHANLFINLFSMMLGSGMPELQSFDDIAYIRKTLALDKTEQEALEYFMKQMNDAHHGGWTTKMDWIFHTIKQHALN
T2 sequence (P27986 whole entry partner, canonical isoform): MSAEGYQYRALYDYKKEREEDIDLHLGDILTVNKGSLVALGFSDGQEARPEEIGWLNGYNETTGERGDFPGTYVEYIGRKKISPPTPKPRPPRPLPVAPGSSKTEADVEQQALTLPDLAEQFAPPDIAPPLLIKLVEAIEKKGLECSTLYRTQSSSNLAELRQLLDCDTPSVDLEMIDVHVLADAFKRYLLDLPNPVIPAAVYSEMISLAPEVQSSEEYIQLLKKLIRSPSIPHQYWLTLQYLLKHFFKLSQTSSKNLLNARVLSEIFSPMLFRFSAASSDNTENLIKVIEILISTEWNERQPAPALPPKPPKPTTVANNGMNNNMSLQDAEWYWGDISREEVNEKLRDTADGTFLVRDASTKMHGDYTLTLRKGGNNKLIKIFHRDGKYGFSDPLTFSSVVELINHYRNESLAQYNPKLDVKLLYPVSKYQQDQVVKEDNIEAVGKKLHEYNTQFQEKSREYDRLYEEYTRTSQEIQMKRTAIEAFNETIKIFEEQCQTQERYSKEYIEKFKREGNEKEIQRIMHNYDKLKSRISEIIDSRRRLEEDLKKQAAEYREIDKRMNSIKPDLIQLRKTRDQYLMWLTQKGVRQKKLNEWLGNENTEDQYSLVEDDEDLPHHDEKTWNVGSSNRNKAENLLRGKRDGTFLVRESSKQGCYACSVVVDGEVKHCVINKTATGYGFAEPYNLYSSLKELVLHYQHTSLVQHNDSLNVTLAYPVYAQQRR
Text: as §1, §2, §3, §4, §5

T1 sequence (O00329 whole entry, canonical isoform): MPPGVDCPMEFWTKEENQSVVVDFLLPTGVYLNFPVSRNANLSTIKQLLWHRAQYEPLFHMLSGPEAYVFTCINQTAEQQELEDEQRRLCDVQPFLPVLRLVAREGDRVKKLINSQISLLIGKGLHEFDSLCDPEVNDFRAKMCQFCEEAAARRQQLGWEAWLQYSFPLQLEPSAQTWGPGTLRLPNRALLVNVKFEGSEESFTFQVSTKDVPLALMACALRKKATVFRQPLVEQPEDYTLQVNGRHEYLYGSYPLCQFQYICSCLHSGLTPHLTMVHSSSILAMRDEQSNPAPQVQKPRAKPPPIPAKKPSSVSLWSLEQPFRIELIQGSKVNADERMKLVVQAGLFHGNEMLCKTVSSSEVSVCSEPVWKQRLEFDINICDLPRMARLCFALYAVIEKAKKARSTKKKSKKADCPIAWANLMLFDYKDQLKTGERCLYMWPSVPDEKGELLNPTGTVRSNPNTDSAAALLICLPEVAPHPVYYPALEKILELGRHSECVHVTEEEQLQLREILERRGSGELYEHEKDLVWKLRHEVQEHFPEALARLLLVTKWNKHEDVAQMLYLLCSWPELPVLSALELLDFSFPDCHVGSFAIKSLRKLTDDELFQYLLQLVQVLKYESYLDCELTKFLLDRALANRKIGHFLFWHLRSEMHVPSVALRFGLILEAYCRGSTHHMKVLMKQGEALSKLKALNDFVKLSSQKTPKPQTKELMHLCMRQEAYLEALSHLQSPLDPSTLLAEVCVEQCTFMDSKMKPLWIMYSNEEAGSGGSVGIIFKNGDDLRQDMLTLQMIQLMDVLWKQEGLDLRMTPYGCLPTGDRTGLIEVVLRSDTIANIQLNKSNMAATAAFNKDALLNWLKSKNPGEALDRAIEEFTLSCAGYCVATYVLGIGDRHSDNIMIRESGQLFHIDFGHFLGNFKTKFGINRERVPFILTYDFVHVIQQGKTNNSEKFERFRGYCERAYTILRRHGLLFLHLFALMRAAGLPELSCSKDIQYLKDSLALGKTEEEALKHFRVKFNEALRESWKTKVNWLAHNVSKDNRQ
T1 sequence (P27986 whole entry partner, canonical isoform): as the sequence (P27986 whole entry partner, canonical isoform) above

Compound	pIC50 (PI3Kdelta)	Selectivity versus PI3Kalpha (PI3Kalpha)
CCn1c(-c2ccc(OC)nc2)nc2c(NC3CCc4nnc(C5CC5)n4C3)ncnc21 (racemic) [Compound 1-12, (S and R)-N-(3-cyclopropyl-5,6,7,8-tetrahydro[1,2,4]triazolo[4,3-a]pyridin-6-yl)-9-ethyl-8-(6-methoxypyridin-3-yl)-9H-purin-6-amine]	8.92	>10
CCn1c(-c2ccc(OC(F)F)nc2)nc2c(NC3CCc4nnc(C5CC5)n4C3)ncnc21 (racemic) [Compound 1-14, (S and R)-N-(3-cyclopropyl-5,6,7,8-tetrahydro[1,2,4]triazolo[4,3-a]pyridin-6-yl)-8-[6-(difluoromethoxy)pyridin-3-yl]-9-ethyl-9H-purin-6-amine]	8.68	>10
CCn1c(-c2ccc(OC(F)(F)F)cc2)nc2c(NC3CCc4nnc(C5CC5)n4C3)ncnc21 (racemic) [Compound 1-16, (S and R)-N-(3-cyclopropyl-5,6,7,8-tetrahydro[1,2,4]triazolo[4,3-a]pyridin-6-yl)-9-ethyl-8-[4-(trifluoromethoxy)phenyl]-9H-purin-6-amine]	8.41	>10
CCn1ncc(-c2nc3c(NC4CCc5nnc(C6CC6)n5C4)ncnc3n2CC)c1C (racemic) [Compound 1-17, (S and R)-N-(3-cyclopropyl-5,6,7,8-tetrahydro[1,2,4]triazolo[4,3-a]pyridin-6-yl)-9-ethyl-8-(1-ethyl-5-methyl-1H-pyrazol-4-yl)-9H-purin-6-amine]	> 9.00	>10
CCn1c(-c2cnc(C)nc2)nc2c(NC3CCc4c(c(C5CC5)nn4C(=O)OC(C)(C)C)C3)ncnc21 (racemic) [Compound 2-1, (S and R)-tert-butyl 3-cyclopropyl-5-{[9-ethyl-8-(2-methylpyrimidin-5-yl)-9H-purin-6-yl]amino}-4,5,6,7-tetrahydro-1H-indazole-1-carboxylate]	> 9.00	>10

Now from value to compound:

pIC50 (PI3Kdelta)	Selectivity versus PI3Kalpha (PI3Kalpha)	Compound
> 9.00	>10	CCn1c(-c2cnn(-c3ccccc3)c2)nc2c(NC3CCc4nnc(C5CC5)n4C3)ncnc21 (racemic) [Compound 1-10, (S and R)-N-(3-cyclopropyl-5,6,7,8-tetrahydro[1,2,4]triazolo[4,3-a]pyridin-6-yl)-9-ethyl-8-(1-phenyl-1H-pyrazol-4-yl)-9H-purin-6-amine]
8.39	>10	CCn1c(-c2ccc(C(F)(F)F)nc2)nc2c(NC3CCc4nnc(C5CC5)n4C3)ncnc21 (racemic) [Compound 1-11, (S and R)-N-(3-cyclopropyl-5,6,7,8-tetrahydro[1,2,4]triazolo[4,3-a]pyridin-6-yl)-9-ethyl-8-[6-(trifluoromethyl)pyridin-3-yl]-9H-purin-6-amine]
8.96	>10	CCn1c(-c2cnc(OC)c(F)c2)nc2c(NC3CCc4nnc(C5CC5)n4C3)ncnc21 (racemic) [Compound 1-13, (S and R)-N-(3-cyclopropyl-5,6,7,8-tetrahydro[1,2,4]triazolo[4,3-a]pyridin-6-yl)-9-ethyl-8-(5-fluoro-6-methoxypyridin-3-yl)-9H-purin-6-amine]
> 9.00	>10	CCn1c(-c2cnc(OC)c(C)c2)nc2c(NC3CCc4nnc(C5CC5)n4C3)ncnc21 (racemic) [Compound 1-15, (S and R)-N-(3-cyclopropyl-5,6,7,8-tetrahydro[1,2,4]triazolo[4,3-a]pyridin-6-yl)-9-ethyl-8-(6-methoxy-5-methylpyridin-3-yl)-9H-purin-6-amine]
7.92	>10	CCn1c(C(=O)NCC(F)(F)F)nc2c(NC3CCc4nnc(C(C)C)n4C3)ncnc21 (racemic) [Compound 1-37, (S and R)-9-ethyl-6-{[3-(1-methylethyl)-5,6,7,8-tetrahydro[1,2,4]triazolo[4,3-a]pyridin-6-yl]amino}-N-(2,2,2-trifluoroethyl)-9H-purine-8-carboxamide]
